Substitutions are numbered along the chain they refer to.
Columns and labels:
OATP1A2*2 = target: T1, OATP1A2*2 (Homo sapiens, UniProt P46721, I13T); experiment: in vitro
T1 sequence (P46721 1-670 I13T): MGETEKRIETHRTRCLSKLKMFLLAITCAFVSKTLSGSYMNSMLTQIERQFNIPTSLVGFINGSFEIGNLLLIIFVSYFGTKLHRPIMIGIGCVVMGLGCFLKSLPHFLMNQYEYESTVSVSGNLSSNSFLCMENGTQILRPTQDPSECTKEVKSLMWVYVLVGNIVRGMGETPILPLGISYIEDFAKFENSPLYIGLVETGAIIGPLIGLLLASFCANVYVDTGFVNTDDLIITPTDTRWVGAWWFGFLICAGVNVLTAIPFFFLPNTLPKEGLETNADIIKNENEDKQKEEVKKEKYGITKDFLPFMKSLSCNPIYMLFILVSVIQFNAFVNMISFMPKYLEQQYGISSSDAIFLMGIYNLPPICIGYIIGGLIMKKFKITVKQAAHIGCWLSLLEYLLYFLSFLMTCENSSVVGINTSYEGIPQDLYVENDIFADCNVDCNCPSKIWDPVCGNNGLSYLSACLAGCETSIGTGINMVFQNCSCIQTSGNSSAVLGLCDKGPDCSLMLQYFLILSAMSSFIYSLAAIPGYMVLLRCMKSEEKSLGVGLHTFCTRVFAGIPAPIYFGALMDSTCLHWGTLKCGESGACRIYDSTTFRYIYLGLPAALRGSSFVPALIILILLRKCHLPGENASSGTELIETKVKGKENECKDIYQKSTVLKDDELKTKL
Protocol: (§1) Cellular uptake studies: For all transport studies, cells were seeded in 24-well plates and incubated in a full growth medium at an initial density of 200,000 cells/well for 3 days. Before starting each transport experiment, cells were washed with a pre-warmed (37 °C) incubation buffer [64]. […] Protein concentration of whole cell lysate was determined to quantify cell density after each experiment using the BCA assay according to the manufacturer’s instructions (Pierce, Rockford, IL, USA).
(§2) Protein abundance of OATP1A2*1–*3 and OCT1–3 were measured by mass spectrometry-based targeted proteomics using a validated LC-MS/MS method as recently described [65].
(§3) 200 μL of each cell lysate sample was mixed with 25 μL internal standard (5 µg/mL daunorubicin), 25 μL citric acid (1%), and 400 μL ice-cold acetonitrile for protein precipitation. […] The clear supernatant was transferred to HPLC vials. The measurement and quantitative evaluation were carried out using the LC-MS/MS system QTRAP 4000® (AB SCIEX, Darmstadt, Germany) and the Software Analyst® 1.4 (Applied Biosystems, Darmstadt, Germany).
(§4) Statistical evaluation: All experiments were performed at least three times unless otherwise noted. The OATP1A2*1–*3 and OCT1-3 net uptake was obtained by subtracting the uptake into wild-type cells from that of the transporter-transfected cells. […]

[1] = cumulative dose 450–600 mg/m^2; cited from earlier work
OCT2 = target: T2, OCT2 (Homo sapiens, UniProt O15244); conditions: MDCKII-OCT2
T2 sequence (O15244 1-555): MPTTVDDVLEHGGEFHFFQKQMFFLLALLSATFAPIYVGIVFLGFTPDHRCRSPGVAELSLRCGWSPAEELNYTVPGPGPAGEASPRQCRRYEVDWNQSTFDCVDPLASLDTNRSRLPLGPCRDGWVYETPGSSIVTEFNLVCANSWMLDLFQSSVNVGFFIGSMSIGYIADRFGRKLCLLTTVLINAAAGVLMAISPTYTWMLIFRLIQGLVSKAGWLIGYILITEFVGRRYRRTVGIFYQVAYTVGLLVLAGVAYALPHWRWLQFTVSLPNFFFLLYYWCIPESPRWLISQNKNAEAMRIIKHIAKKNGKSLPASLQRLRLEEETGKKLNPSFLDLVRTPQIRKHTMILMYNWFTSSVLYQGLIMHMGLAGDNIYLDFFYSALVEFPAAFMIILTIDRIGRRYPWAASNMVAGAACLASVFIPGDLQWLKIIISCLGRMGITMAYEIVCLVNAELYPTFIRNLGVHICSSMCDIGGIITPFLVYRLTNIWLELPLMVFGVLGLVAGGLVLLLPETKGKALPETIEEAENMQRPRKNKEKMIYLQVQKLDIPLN
Protocol: as §1
(§5) Statistical evaluation: All experiments were performed at least three times unless otherwise noted. The OATP1A2*1–*3 and OCT1-3 net uptake was obtained by subtracting the uptake into wild-type cells from that of the transporter-transfected cells. Km and Vmax were assessed using Prism 5.01 (GraphPad Software, San Diego, CA, USA). The differences in the doxorubcin uptake in OATP1A2*1–*3 and in OCT1-3 transfected cells were adjusted to the membranous transporter protein levels in the whole cell lysate. Km and Vmax are presented as arithmetic means ± standard deviation.

OATP1A2*2/*3 = experiment: Doxorubicin uptake clearance by OATP1A2 genetic variants versus wild type; assay type: cell-based, human; conditions: OATP1A2*2 and *3 versus OATP1A2*1
Protocol: as §1, §2
Statistical evaluation: All experiments were performed at least three times unless otherwise noted. The OATP1A2*1–*3 and OCT1-3 net uptake was obtained by subtracting the uptake into wild-type cells from that of the transporter-transfected cells. Km and Vmax were assessed using Prism 5.01 (GraphPad Software, San Diego, CA, USA). […] Km and Vmax are presented as arithmetic means ± standard deviation.

OCT1 = target: T3, OCT1 (Homo sapiens, UniProt O15245); experiment: in vitro; conditions: mdck
T3 sequence (O15245 1-554): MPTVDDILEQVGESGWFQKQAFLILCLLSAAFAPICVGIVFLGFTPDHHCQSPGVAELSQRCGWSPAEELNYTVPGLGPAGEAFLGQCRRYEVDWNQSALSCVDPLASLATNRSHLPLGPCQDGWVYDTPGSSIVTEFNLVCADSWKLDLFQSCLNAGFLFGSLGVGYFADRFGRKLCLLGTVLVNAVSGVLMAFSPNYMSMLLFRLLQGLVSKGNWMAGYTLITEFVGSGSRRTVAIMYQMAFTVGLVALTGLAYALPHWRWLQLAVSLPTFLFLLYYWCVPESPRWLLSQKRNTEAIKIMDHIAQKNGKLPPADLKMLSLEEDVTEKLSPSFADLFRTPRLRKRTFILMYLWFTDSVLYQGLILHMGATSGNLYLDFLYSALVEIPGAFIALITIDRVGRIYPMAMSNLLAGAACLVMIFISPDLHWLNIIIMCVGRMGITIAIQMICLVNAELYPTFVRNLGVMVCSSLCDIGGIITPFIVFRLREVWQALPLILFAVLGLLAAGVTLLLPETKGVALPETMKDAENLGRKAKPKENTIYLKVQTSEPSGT
Protocol: as §1, §5

OATP1A2*3 = target: T4, OATP1A2*3 (Homo sapiens, UniProt P46721, E172D); experiment: in vitro
T4 sequence (P46721 1-670 E172D): T1 sequence (P46721 1-670 I13T) with T13I, E172D
Protocol: as §1, §2, §3, §4

Question: Which results are given for `COc1cccc2c1C(=O)c1c(O)c3c(c(O)c1C2=O)C[C@@](O)(C(=O)CO)C[C@@H]3O[C@H]1C[C@H](N)[C@H](O)[C@H](C)O1` [doxorubicin, Doxorubicin]?
Answer: Km (OATP1A2*2; HEK293 cells stably expressing OATP1A2*2): 5.84 ± 3.95 µM; microsomal CLint (OATP1A2*2; other cell line): 1.39 ± 0.65 µL/min/mg; risk of congestive heart failure [1]: 3–18%; Vmax (OCT2; doxorubicin 0–100 µmol/L, 3 min, mean ± SD): 37.8 ± 11.1 pmol/mg/min; saturation of concentration-dependent OCT2-mediated uptake (OCT2; incubation time 3 min, up to 100 µmol/L): not saturated; diminished cellular uptake clearance by the genetic variants (OATP1A2*2/*3): 51–70%; microsomal CLint at 3 min (OCT1): 4.16 ± 1.1 µL/min/mg; Km (OATP1A2*3; HEK293 cells stably expressing OATP1A2*3): 5.94 ± 3.07 µM; microsomal CLint (OATP1A2*3; other cell line): 2.32 ± 0.99 µL/min/mg
